Experimental data published in the supplement of paper PMC11451515.

Experiments:
Conditions in all cases: 48 h
SEM cells [1] = test: AUC of viability dose-response curve (% viability x log10 dose units); higher = less sensitive
Procedure, shortened: (§1)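 Medium-adapted leukemia cells in 1536-well plates, at 500 or 1000 cells/well, were incubated for 48 h at 37°C with library compounds in DMSO at 11 threefold doses from 47 μM to 0.79 nM. CellTiter-Glo One luminescence normalised per plate to DMSO and cell-free wells was fitted with a four-parameter log-logistic model over log10 doses. Area under the curve was integrated from this fit by trapezoidal rule, with curves beyond full viability scaled and failed quality-control curves removed.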

P12-Ichikawa [2] = test: as above
Procedure, shortened: as §1

NOMO1 [3] = test: as above
Procedure, shortened: as §1

SEM cells [4] = test: cell viability relative to DMSO control; higher = less cytotoxic
Procedure, shortened: (§2)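 Leukemia cells (NOMO1 or SEM, 500 cells/well; P12-Ichikawa, 1000 cells/well) were seeded in 5 μl in 1536-well plates after at least four passages of adaptation to each medium. They received library compounds in DMSO by pin dosing, 11 threefold points from 47 μM to 0.79 nM. Luminescence with CellTiter-Glo One was read after 48 h at 37°C. Viability is stated per plate relative to DMSO wells, with cell-free wells as background.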

P12-Ichikawa [5] = test: as above
Procedure, shortened: as §2

NOMO1 [6] = test: as above
Procedure, shortened: as §2

CC(C)OC(=O)[C@H](C)N[P@](=O)(OC[C@H]1O[C@@H](N2\C=C/C(=O)NC2=O)[C@](C)(F)[C@@H]1O)OC3=CC=CC=C3
AUC of viability dose-response curve
Conditions	NOMO1 [3]	P12-Ichikawa [2]	SEM cells [1]
HPLM + 10% dialyzed FBS	372	331	387
RPMI 5 mM glucose + 10% FBS	412	391	399
RPMI 5 mM glucose + 10% dialyzed FBS	409	385	405

cell viability [%]
Conditions	NOMO1 [6]	P12-Ichikawa [5]	SEM cells [4]
HPLM + 10% dialyzed FBS, 0.000781 µM	115	104	105
HPLM + 10% dialyzed FBS, 0.00234 µM	125	111	111
HPLM + 10% dialyzed FBS, 0.00702 µM	119	117	122
HPLM + 10% dialyzed FBS, 0.0211 µM	122	110	120
HPLM + 10% dialyzed FBS, 0.0632 µM	127	102	99.4
HPLM + 10% dialyzed FBS, 0.19 µM	131	108	131
HPLM + 10% dialyzed FBS, 0.569 µM	87.5	94.3	106
HPLM + 10% dialyzed FBS, 1.71 µM	91	41.5	98.4
HPLM + 10% dialyzed FBS, 5.12 µM	40.5	8.75	57.7
HPLM + 10% dialyzed FBS, 15.4 µM	34.3	6.42	17.6
HPLM + 10% dialyzed FBS, 46.1 µM	40.8	9.25	18.5
RPMI 5 mM glucose + 10% FBS, 0.000781 µM	101	113	125
RPMI 5 mM glucose + 10% FBS, 0.00234 µM	99.8	99	120
RPMI 5 mM glucose + 10% FBS, 0.00702 µM	116	124	130
RPMI 5 mM glucose + 10% FBS, 0.0211 µM	98.4	109	122
RPMI 5 mM glucose + 10% FBS, 0.0632 µM	107	112	121
RPMI 5 mM glucose + 10% FBS, 0.19 µM	99.9	101	125
RPMI 5 mM glucose + 10% FBS, 0.569 µM	95.7	110	125
RPMI 5 mM glucose + 10% FBS, 1.71 µM	98	98.1	120
RPMI 5 mM glucose + 10% FBS, 5.12 µM	87.3	69.3	88.1
RPMI 5 mM glucose + 10% FBS, 15.4 µM	17.5	7.18	14.3
RPMI 5 mM glucose + 10% FBS, 46.1 µM	19	5.81	9.48
RPMI 5 mM glucose + 10% dialyzed FBS, 0.000781 µM	101	96.2	101
RPMI 5 mM glucose + 10% dialyzed FBS, 0.00234 µM	110	105	109
RPMI 5 mM glucose + 10% dialyzed FBS, 0.00702 µM	115	106	106
RPMI 5 mM glucose + 10% dialyzed FBS, 0.0211 µM	130	103	120
RPMI 5 mM glucose + 10% dialyzed FBS, 0.0632 µM	114	102	111
RPMI 5 mM glucose + 10% dialyzed FBS, 0.19 µM	100	102	115
RPMI 5 mM glucose + 10% dialyzed FBS, 0.569 µM	99.8	101	107
RPMI 5 mM glucose + 10% dialyzed FBS, 1.71 µM	101	93.1	105
RPMI 5 mM glucose + 10% dialyzed FBS, 5.12 µM	81.3	49.8	86.8
RPMI 5 mM glucose + 10% dialyzed FBS, 15.4 µM	23.7	12	17.3
RPMI 5 mM glucose + 10% dialyzed FBS, 46.1 µM	24.1	11.3	9.7
